Experimental data from ChEMBL document CHEMBL3507680, “University of Dundee, Gates Library screen for HepG2 cell viability”.

Test: Human HepG2 cell viability assay in 384 well format
Format: toxicity, cell-based
Set-up: dose 125 nL, time 70.5 hour; concentration not given beside the values
Conditions: HepG2 cells, read-out: Inhibition

| SMILES | cytotoxicity at 70.5 h [%] |
| --- | --- |
| CN(Cc1ccc(F)cc1)C(=O)NCC1(N2CCOCC2)CCSC1 (stereo not given) | 11.7 |
| Cc1ccccc1C(=O)NCc1ccc(N2CCNC(=O)C2)cc1 | -10.2 |
| CC(=O)c1ccc(OCC(=O)NC(C)CCc2ccco2)cc1 (stereo not given) | -18.1 |
| Cc1csc(CNC(=O)NCC(O)c2cccc(Cl)c2)n1 (stereo not given) | -11 |
| Cc1ccc(C)c(C(=O)CN2C(=O)c3ccccc3CS2(=O)=O)c1 | -15 |
| Cc1ccccc1C(=O)CN1C(=O)c2ccccc2CS1(=O)=O | 5.68 |
| CC(=O)N(C)c1nc(CN2CCOC(Cn3cccn3)C2)cs1 (stereo not given) | -11.7 |
| O=C(NCCOc1ccc(F)c(F)c1)NCc1ccncc1 | -11.2 |
| COCc1noc(C2(c3ccc(OC)cc3)CCOCC2)n1 | -9.29 |
| CCOCC(=O)NC1(c2cccc(Br)c2)CC1 | 13.9 |
| N#Cc1cc(NC(=O)c2ccsc2)ccc1N1CCC(O)CC1 | -11.8 |
| COc1ccccc1OCC(=O)NS(=O)(=O)c1cc(F)ccc1F | -4.75 |
| N#Cc1cc(NC(=O)C2CC=CC2)ccc1N1CCC(O)CC1 | -0.67 |
| Cc1ccc(-c2nc(CN3CCOC(c4ccccc4)C3)cs2)o1 (stereo not given) | -9.61 |
| CCOC(C)c1nc(CN2CCC(CNC(C)=O)CC2)cs1 (stereo not given) | -2.36 |
| CN(C)S(=O)(=O)N1CCCC1CC(=O)c1cccs1 (stereo not given) | -9.51 |
| COc1cc(C)c(C(C)NC(=O)Nc2nnc(C)s2)cc1OC (stereo not given) | -11.5 |
| COc1ccc(OCC(=O)NC(C)c2ccc(F)cc2)c(C(=O)O)c1 (stereo not given) | -7 |
| OC(CN1CCN(c2ncccn2)CC1)c1cccc(F)c1 (stereo not given) | -9.46 |
| CC(C)N(C)CCCNC(=O)c1cnc(-c2ccccc2)nc1 | 2.52 |

| SMILES | cytotoxicity at 70.5 h [%] |
| --- | --- |
| Cc1ccccc1CN1CCC(NCC2CNc3ccnn3C2)CC1 (stereo not given) | 0.228 |
| COc1c(CNC2CCCOc3ccccc32)c(C)nn1C (stereo not given) | -9.23 |
| N#Cc1ccc(CNC(=O)NC2CCN(CC(F)F)CC2)cc1 | -9.49 |
| COc1ccc(OCC(=O)NC(C)c2ccccc2)c(C(=O)O)c1 (stereo not given) | -7.12 |
| N#Cc1ccnc(N2CCN(CC(O)c3cccc(F)c3)CC2)c1 (stereo not given) | -7.6 |
| COc1ccnc(N2CCN(C(=O)c3cnn(C)c3C3CC3)CC2)n1 | -6.28 |
| COc1ccnc(N2CCN(C(=O)c3csc(C(C)C)n3)CC2)n1 | 9.24 |
| Cc1cc2n(n1)CC(CNC1CCN(Cc3ccccc3C)CC1)CN2 (stereo not given) | 5.18 |
| Cc1nc(CN2CCC(CNC(=O)Nc3ccccn3)CC2)oc1C | -8.33 |
| COc1ccc(CNC(=O)NC2CCN(CC(F)F)CC2)cc1C | -7.09 |
| CCOc1cc(F)ccc1NS(=O)(=O)c1cc(C)c(C(=O)O)s1 | -8.13 |
| CSCC(C)(O)CNC(=O)c1ccc(Br)cc1F (stereo not given) | -5.28 |
| CC(NCc1ccncc1)c1cc(F)ccc1N1CCN(C)CC1 (stereo not given) | -4.5 |
| CCC(C)N(C)CCNC(=O)NCc1cccc(-n2cncn2)c1 (stereo not given) | -2.22 |
| Cc1cccc(C(=O)NC2CCN(c3cnn(C)c3)C2=O)n1 (stereo not given) | 12.5 |
| Fc1ccc2c(c1)C(NCc1nnc3n1CCCCC3)CCCO2 (stereo not given) | 3.88 |
| CC(O)CC(C)(C)CNC(=O)NCc1cccc(-n2cncn2)c1 (stereo not given) | -7.73 |
| CC(C)(C)OC(=O)N1CCCC[C@H]1C(=O)NCc1nccs1 | -9.82 |
| O=S(=O)(CCN1CCOC(Cn2cncn2)C1)c1ccccc1 (stereo not given) | -17.9 |
| Cc1cnc(CN(Cc2ccccc2)CC(O)c2cccs2)cn1 (stereo not given) | 7.82 |

| SMILES | cytotoxicity at 70.5 h [%] |
| --- | --- |
| CSCC(C)(O)CNC(=O)c1ccc(Br)cc1C (stereo not given) | -9.56 |
| CC(C)c1noc(CCC(=O)NC(C)c2nnc3n2CCCCC3)n1 (stereo not given) | -6.86 |
| Cn1cc(CN(Cc2ccccc2)CC(O)c2cccs2)cn1 (stereo not given) | -8.92 |
| OC(CN(Cc1ccccc1)Cc1ccncc1)c1cccs1 (stereo not given) | 21.6 |
| Cn1ccnc1CNC1CCCN(Cc2noc(C3CC3)n2)C1 (stereo not given) | -3.59 |
| O=C(c1cccnc1-n1cncn1)N1CCc2ccccc2C1 | -10.4 |
| CN(CC(=O)N1CCN(c2ncccn2)CC1)c1ccc(Cl)cn1 | -7.47 |
| CCOc1ccc(C(C)NC(=O)N2CCC(C(N)=O)CC2)cc1OC (stereo not given) | -10.4 |
| Cc1nn(C)c(C)c1NC(=O)CN1CCc2c(nc(C(C)C)n2C)C1 | -10.5 |
| COc1ccc(C(=O)NS(=O)(=O)c2cncc(Br)c2)cc1OC | -3.31 |
| CCC(O)CN1CCN(C(=O)c2ccnc(N(C)C)c2)CC1 (stereo not given) | -11.3 |
| Cn1cccc1C(=O)N1CCC2(CC1)CN(c1ccccc1)C(=O)CO2 | -14.1 |
| Cn1cc(N2CC3(CCN(C(=O)c4cccn4C)CC3)OCC2=O)cn1 | -12.8 |
| COCCC1COC2(CCN(C(=O)c3ccccc3)CC2)C1 (stereo not given) | -7.59 |
| O=C(Cc1ccsc1)N1CCc2ncc(Cn3cccn3)n2CC1 | -13.8 |
| O=C(c1cccs1)N1CCc2ncc(Cn3cncn3)n2CC1 | -13.5 |
| Cc1cc(F)c(S(=O)(=O)NCC(C)(C)N)cc1F | -10.9 |
| CCC(N)C(=O)N1CCC(OCc2ccc(Cl)c(Cl)c2)CC1 (stereo not given) | 8.03 |
| CCCNC(c1cccnc1)c1ccc(F)c(C)c1 (stereo not given) | -13.4 |
| O=C(c1ccc[nH]1)N1CCn2cc(Cn3cccn3)nc2C1 | -8.4 |
